Measurements: patent publication US5585492A, “LTA4 Hydrolase inhibitors” (priority 1994, dated 1996)
Where a name gives a salt, the structure may show the parent alone. Read-outs that look alike come from different tables or passages of the source.

Tests used:
[1] = system: LTB4 production in mouse blood; experiment: Murine Ex Vivo LTB4 Inhibition, calcium ionophore stimulated mouse blood after oral gavage; format: in vivo; details: oral gavage, 10 mg/kg, 1 hour
Experimental: Leukotriene A4 hydrolass inhibitor compounds of the present invention were diluted to a predetermined concentration in phosphate buffered saline containing 2% DMSO and 1% Tween 80. The compounds were administered by oral gavage to adult male outbred mice weighing approximately 20-30 gm at a dose of 10 mg/kg body weight. (Compounds given at a dose of 50 mg/kg body weight are designtated in following Table by the symbol, *.) Sixty (60) minutes after administration of an LTA4 inhibitor compound of the invention, blood was collected (into heparin-containing tubes) from the retroorbital sinus. […] The mixture was incubated for 10 minutes at 37° C. in a humidified incubator. The reaction was terminated by centrifugation (833 g, 10 minutes at 4° C.). Supernatants were analyzed for LTB4 and thromboxane by commercially available enzyme-linked immunoassays [Caymen Chemical Co., Ann Arbor, Mich.] in accordance with the manufacturer's instructions. The percent inhibition was determined by comparison to animals treated identically except that the solution admininstered by oral gavage was devoid of inhibitor compound.

[2] = system: LTB4 production in human blood; experiment: Inhibition of Calcium Ionophore-Induced LTB4 Production in Human Blood (HWB); format: cell-based; details: Homo sapiens, read-out: Inhibition of Calcium Ionophore-Induced LTB4 Production in Human Blood IC50 HWB
Experimental: One or more concentrations of the leukotriene A4 hydrolass inhibitor compounds being tested were prepared (diluted in DMSO) and 2 μl added and gently mixed with the diluted whole blood. After incubating for 15 minutes at 37° C. in a humidified incubator, calcium ionophore A23187 (Sigma Chemical Co., St. Louis, Mo.) was added to a final concentration of 20 mcg/ml and the incubation continued under the same conditions for an additional 10 minutes to allow LTB4 formation. The reaction was terminated by centrifugation (833 g, 10 minutes at 4° C.) and supernatant were analyzed for LTB4 and thromboxane by commercially available enzyme-linked immunoassays (Caymen Chemical Co., Ann Arbor, Mich.) according to the manufacturer's instructions. The IC50 of each test compound was determined from the amount of inhibition of LTB4 production as compared to an essentially identical assay in which no inhibitor compound was present.

[3] = target: T1, recombinant human LTA4 hydrolase (Homo sapiens, UniProt P09960); experiment: Recombinant Human LTA4 Hydrolase Assay for LTA4 Hydrolase Inhibitor Activity (LTB4 by enzyme-linked immunoassay); format: biochemical; details: for IC50: read-out: Recombinant Human LTA4 Hydrolase Assay IC50 LTA4H
T1 construct: made in house; host or cells: Spodoptera frugiperda Sf-9 cells, baculovirus (AcNPV) expression vector
T1 sequence (P09960 1-611): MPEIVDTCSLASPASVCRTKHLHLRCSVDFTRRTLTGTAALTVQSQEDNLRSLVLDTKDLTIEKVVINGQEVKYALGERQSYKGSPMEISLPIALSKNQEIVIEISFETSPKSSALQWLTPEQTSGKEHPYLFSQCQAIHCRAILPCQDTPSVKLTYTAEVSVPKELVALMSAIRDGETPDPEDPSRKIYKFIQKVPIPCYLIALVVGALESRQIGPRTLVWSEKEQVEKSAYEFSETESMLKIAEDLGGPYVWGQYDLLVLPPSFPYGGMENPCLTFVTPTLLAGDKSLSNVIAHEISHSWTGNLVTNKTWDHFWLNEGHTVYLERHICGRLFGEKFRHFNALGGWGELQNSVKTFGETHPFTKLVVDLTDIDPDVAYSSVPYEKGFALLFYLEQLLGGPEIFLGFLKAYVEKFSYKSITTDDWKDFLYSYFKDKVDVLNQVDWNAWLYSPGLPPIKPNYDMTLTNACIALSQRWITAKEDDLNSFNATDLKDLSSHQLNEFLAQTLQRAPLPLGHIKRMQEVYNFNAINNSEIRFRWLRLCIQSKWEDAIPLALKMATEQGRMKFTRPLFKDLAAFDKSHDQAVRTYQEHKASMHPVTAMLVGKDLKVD
Experimental: Compounds of the present invention were tested for LTA4 hydrolase inhibitor activity against recombinant human LTA4 hydrolase (rhLTA4 H). […] Briefly, LTA4 hydrolase encoding DNA was amplified by polymerase chain reaction using a pair of oligonucleotide primers based on the nucleotide sequence from the 5'-end, and the complement of the 3'-end, of the coding region of the LTA4 hydrolase gene, the nucleotide sequence of which gene is known. […] A λgtll human placental cDNA library (Clonetech, Palo Alto, Calif.) provided the nucleic acid template.
One or more predetermined amounts of a compound of the invention were incubated in assay buffer (0.1M potassium phosphate, 5 mg/ml fatty acid free BSA, 10% DMSO, pH 7.4) for 10 minutes at room temperature with 250 ng of recombinant hLT4 H to allow binding, if any, between the enzyme and inhibitor. The stock enzyme solution was 1 mg/ml LTA4 hydrolase, 50 mM Tris, pH 8.0, 150 mM NaCl, 2.5 mM beta-mercaptoethanol, 50% glycerol. […] LTA4 (i.e., substrate) was prepared from the methyl ester of LTA4 (Biomol, Inc., Plymouth Meeting, Pa.) by treating the methyl ester with 30 molar equivalents of LiOH at room temperature for 18 hours. The LTA4 substrate in its free acid form was kept frozen at -80° C. until needed. […] Each reaction was carried out at room temperature for 10 minutes. The reaction was stopped by diluting 25 μl of the reaction mixture with 500 μl of the assay buffer without DMSO. LTB4 was quantified in the diluted sample by a commercially available enzyme-linked immunoassay [Caymen Chemical Co., Ann Arbor, Mich.] using the method recommended in the manufacturer's instructions and compared to the amount of LTB4 produced in a negative control (i.e., essentially identical conditions except without addition of an inhibitor compound). The IC50 was routinely calculated from the data produced.

[4] = human whole blood, A23187 20 mcg/ml

Row | Structure (SMILES) | IC50 [3] [nM] | IC50 [2, 4] [nM] | also measured
1 | [O-][n+]1ccc2c(c1)ncn2CCOc1ccc(Cc2ccccc2)cc1 [Example 365] |  |  | Murine Ex Vivo LTB4 Inhibition % I LTB4 at 1 hour after administration of 10 mg/kg [1]: 72%
2 | O=C1CC2CCCC(C1)N2CCOc1ccc(Cc2ccccc2)cc1 [Example 303] | 97 |  | IC50 [2]: 1650 nM
3 | CC(=O)NC1CCN(CCOc2ccc(Cc3ccccc3)cc2)C1 (stereo not shown) [Example 227] | 210 | 420 | 
4 | Clc1ccc(Cc2ccc(OCCN3CCCC3)cc2)cc1 [Example 140] | 60 | 1010 | 
5 | COC(=O)[C@@H]1CCCN1CCOc1ccc(Cc2ccccc2)cc1 [Example 225, Methyl 1-[2-[4-(phenylmethyl)phenoxy]ethyl]-2S-pyrrolidine-2-carboxylate, monohydrochloride, hydrate] | 450 | 1860 | 
6 | C(=C\c1ccc(OCCN2CCCC2)cc1)/c1ccccc1 [Example 46] | 1350 | 1500 | 
7 | N#CC1CCN(CCOc2ccc(Cc3ccccc3)cc2)CC1 [Example 279] | 470 |  | 
8 | CCOC(=O)C1CCN(CCOc2ccc(Cc3cccnc3)cc2)CC1 [Example 311] |  |  | inhibition at 100 µM [3]: 44%
9 | c1ccc(Cc2ccc3c(c2)CC(Cn2nc4cccnc4n2)O3)cc1 (stereo not shown) [Example 360B] |  |  | inhibition at 100 µM [3]: 19%
10 | Cc1ccccc1COc1ccc(OCCN2CCCC2)cc1 [Example 210] |  |  | inhibition at 25 µM [3]: 4%
11 | Fc1ccc(Oc2ccc(OCCn3cnc4cccnc43)cc2)cc1 [Example 354A] |  |  | inhibition at 3 µM [3]: 51%
12 | Clc1cc(Cc2ccccc2)ccc1OCCN1CCCC1 [Example 113] | 1230 | 2010 | 
13 | Clc1cccc(Cl)c1COc1ccc(OCCN2CCCC2)cc1 [Example 204] |  |  | inhibition at 25 µM [3]: 49%
14 | c1coc(Cc2ccc(OCCN3CCCC3)cc2)c1 [Example 135] | 47 |  | 
15 | CCOC(=O)C1CCN(CCOc2ccc(Cc3ccc(F)cc3)cc2)CC1 [Example 312] |  |  | inhibition at 100 µM [3]: 46%
16 | COc1ccc(Cc2ccc(OCCN3CCCC3)cc2)cc1 [Example 128] | 70 | 890 | 
17 | O=C(O)c1ccc(-c2ccc(OCCN3CCCC3)cc2)cc1 [Example 63] |  |  | inhibition at 25 µM [3]: 40%
18 | COc1cccc(Cc2ccc(OCCN3CCCC3)cc2)c1 [Example 127] | 840 | 2480 | 
19 | C#CC(CC(=O)OCC)NCCOc1ccc(Cc2ccccc2)cc1 (stereo not shown) [Example 408] |  |  | inhibition at 100 µM [3]: 76%
20 | c1cc(Cc2ccc(OCCN3CCCC3)cc2)co1 [Example 136] | 77 |  | 
21 | NC(=O)C1CCN(CCCOc2ccc(Cc3ccccc3)cc2)CC1 [Example 226, 1-[3-[4-(phenylmethyl)phenoxy]propyl]-4-piperidinecarboxamide] |  |  | inhibition at 100 µM [3]: 4%
22 | c1ccc(COc2ccc(OCCn3cnc4cccnc43)cc2)cc1 [Example 346A] |  |  | inhibition at 3 µM [3]: 31%
23 | c1ccc(Cc2cnc(OCCN3CCCC3)s2)cc1 [Example 76] | 2900 | 3500 | 
24 | c1ccc(Cc2ccc(OCCN3CCCCC3)cc2)cc1 [Example 401] | 55 |  | 
25 | c1ccc(Cc2ccc(SCCN3CCCC3)cc2)cc1 [Example 68] | 480 |  | 
26 | Cc1nc(COc2ccc(OCCN3CCCC3)cc2)cs1 [Example 202] |  |  | inhibition at 3 µM [3]: 44%
27 | O=C(CNCCOc1ccc(Cc2ccccc2)cc1)OCc1ccccc1 [Example 319] |  |  | inhibition at 100 µM [3]: 47%
28 | Fc1cc(Cc2ccccc2)ccc1OCCN1CCCC1 [Example 115] | 60 | 190 | 
29 | O=C(OCc1ccccc1)[C@@H]1CCCN1CCCOc1ccc(Cc2ccccc2)cc1 [Example 228, Phenylmethyl 1-[3-[4-(phenylmethyl)phenoxy]propyl]-L-prolinate] |  |  | inhibition at 3 µM [3]: 28%

Second part, led by results:

Row | IC50 [3] [nM] | IC50 [2, 4] [nM] | Structure (SMILES) | also measured
30 | 4100 | 232 | COC(=O)C1CCN(CCOc2ccc(Cc3ccccc3)cc2)C1 (stereo not shown) [Example 276] | 
31 | 220 | 586 | COC(=O)CCNCCOc1ccc(Cc2ccccc2)cc1 [Example 324] | 
32 | 130 | 1730 | CC1(CN2CCCC2)Cc2cc(Cc3ccccc3)ccc2O1 (stereo not shown) [Example 285] | 
33 | 37 | 120 | O=C(COc1ccc(Cc2ccccc2)cc1)N1CCCCC1 [Example 387, 1-(1-piperidinyl)-2-[4-(phenylmethyl)phenoxy]ethanone] | 
34 | 16 | 95 | COC(=O)CCN(C)CCCOc1ccc(Cc2cccs2)cc1 [Example 331] | 
35 | 3000 | 1100 | CCOC(=O)CNCCCOc1ccc(Cc2ccccc2)cc1 [Example 264] | 
36 |  | 7980 | CC(C)(C)OC(=O)CCNCCCOc1ccc(Cc2ccccc2)cc1 [Example 268] | inhibition at 3 µM [3]: 53%
37 | 210 | 403 | NC(=O)CC1CCN(CCOc2ccc(Cc3ccccc3)cc2)C1 (stereo not shown) [Example 426] | 
38 | 81 | 350 | NC(=O)NC1CCN(CCOc2ccc(Cc3ccccc3)cc2)C1 (stereo not shown) [Example 453] | 
39 | 140 | 280 | O=C(O)CCNCCCOc1ccc(Cc2ccccc2)cc1 [Example 431] | 
40 | 1320 | 4580 | Nc1ccc2ncn(CCOc3ccc(Cc4ccccc4)cc3)c2c1 [Example 362B] | 
41 | 60 | 380 | COC[C@@H]1CCCN1CCOc1ccc(Cc2ccccc2)cc1 [Example 400] | 
42 | 4900 | 1770 | NC(=O)C1CCCN(CCCOc2ccc(Oc3ccccc3)cc2)C1 (stereo not shown) [Example 250] | 
43 | 20 | 290 | NC1CCN(CCOc2ccc(Cc3ccccc3)cc2)C1 (stereo not shown) [Example 452] | 
44 | 9000 |  | NC(=O)C1CCN(CCOc2ccc(Cc3ccccc3)cc2)CC1 [Example 239] | 
45 | 87 | 440 | NC(=O)NC1CCN(CCOc2ccc(Cc3ccccc3)cc2)CC1 [Example 456] | 
46 | 50 | 180 | CC(=O)NC1CCN(CCOc2ccc(Cc3ccccc3)cc2)CC1 [Example 238] | 
47 | 11000 | 7980 | CCOC(=O)CC(NCCOc1ccc(Cc2ccccc2)cc1)c1cccnc1 (stereo not shown) [Example 271] | 
48 |  | 9150 | c1ccc(Cc2ccc(OCCn3cnc4cccnc43)cc2)cc1 [Example 338C] | inhibition at 3 µM [3]: 34%
49 | 190 | 240 | CCOC(=O)CCN(C)CCCOc1ccc(Cc2ccccc2)cc1 [Example 412] | 
50 | 16 | 360 | NC(=O)C1CCN(CCOc2ccc(Cc3ccccc3)cc2)C1 (stereo not shown) [Example 425] | 
51 | 18 | 49 | O=C(O)CCNCCCCOc1ccc(Cc2ccccc2)cc1 [Example 433] | 
